According to patent publication US20230172984A1, “CLEARANCE OF SENESCENT CELLS BY ACTIVATION OF iNKT CELLS” (THE REGENTS OF THE UNIVERSITY OF CALIFORNIA, priority 2020, published 2023):

How the values were obtained:
[1] = test system: senescent CD45^− lung cells; test: Bleomycin-induced lung injury model, C12FDG assay on lung cells; format: in vivo, mouse
Experimental: MATERIALS AND METHODS. Mouse husbandry. All procedures involving mice were performed according to the IACUC standards following ethics approval by the animal committee at the University of California, San Francisco. Male C57BL6/J on chow or HFD fed mice. HFD mice were fed a high-fat diet (60% kcal from fat) from 6 weeks until 22 weeks of age. All experiments on HFD mice were performed at 22-24 weeks total age (16-18 weeks on HFD). Age-matched male C57BL6/J mice on standard rodent chow diet were used as controls. For the lung injury model, 10-week-old male C57BL/6J mice were used. The animals were divided into three groups: the control group, the injured group, and the α-GalCer treated group. The animals in the control group received vehicle only (i.p.) on day 10. […] RBCs in cell pellet were lysed by resuspending in 1 mL lysis buffer for 3 min and was neutralized using 10 mL of sterile DMEM medium, centrifuged and the cell pellet resuspended in 1 ml of sterile DMEM containing DNase I. Viability of the cells was analyzed using Vi-Cell XR cell viability analyzer. C12FDG flow cytometry assay. eWAT SVF cells isolated and counted as described above were adjusted to 3×10^6 cells/ml in complete culture media and incubated with 33 μM C12FDG for 1 hr in a 37° C. water bath. […] Samples were analyzed on an Attune acoustic focusing cytometer. […] Data were analyzed with FlowJo (v. 10). […]

[2] = Bleomycin lung injury, hydroxyproline assay (whole lung collagen content); format: in vivo, mouse; conditions: bleomycin 3 U/kg, α-GalCer or vehicle at day 10; FIG. 4D
Experimental: MATERIALS AND METHODS. Mouse husbandry. All procedures involving mice were performed according to the IACUC standards following ethics approval by the animal committee at the University of California, San Francisco. Male C57BL6/J on chow or HFD fed mice. HFD mice were fed a high-fat diet (60% kcal from fat) from 6 weeks until 22 weeks of age. All experiments on HFD mice were performed at 22-24 weeks total age (16-18 weeks on HFD). Age-matched male C57BL6/J mice on standard rodent chow diet were used as controls. For the lung injury model, 10-week-old male C57BL/6J mice were used. The animals were divided into three groups: the control group, the injured group, and the α-GalCer treated group. The animals in the control group received vehicle only (i.p.) on day 10. The injured group animals received bleomycin (3 U/kg) via the intratracheal route at the start of the experiment (day 0). The animals in the α-GalCer treated groups received bleomycin (3 U/kg) on day 0, and i.p. injection of α-GalCer (2 μg/mouse) on day 10. The animals in all the groups were sacrificed on day 14, and lungs were harvested for isolation of primary pulmonary Alveolar Type II cells (ATII) on the same day. For the hydroxyproline assay, mice were euthanized 21 days after injury. Bleomycin lung injury. […] Absorbance was measured at 550 nm and the values were computed from the standard curve.

## CCCCCCCCCCCCCCCCCCCCCCCCCC(=O)N[C@@H](CO[C@H]1O[C@H](CO)[C@H](O)[C@H](O)[C@H]1O)[C@H](O)[C@H](O)CCCCCCCCCCCCCC [GalCer, alpha-Galactosylceramide]
[1]; bleomycin 3 U/kg day 0, α-GalCer 2 μg/mouse i.p. day 10, lungs harvested day 14, FIG. 4A
  number of CD45^− C12FDG^+ lung cells: decreased the number of such CD45^− C12FDG^+ lung cells to levels on par with those in the lungs of uninjured control mice
[1]; bleomycin-injured mice treated with GalCer
  epithelial and mesenchymal senescent cells in lung: both epithelial and mesenchymal senescent cells were affected
[2]
  lung hydroxyproline content (fibrosis): significantly reduced lung hydroxyproline content
